The target of one assay is cIAP2-BIR2 (Homo sapiens (Human), UniProt Q13489). The assay can be described thus: BIR binding assay (FRET competition), cIAP2 BIR2. The procedure:
(§1) The BIR domain binding assays are FRET based competition assays that utilize His-tagged versions of each of the BIR2 and BIR3 domains from cIAP1, cIAP2, and XIAP (each domain assayed separately) each at a custom optimal concentration and a probe, 200 nM SMAC/DIABLO peptide […] labelled with AlexaFluor647 (part #crb 1110326h, Discovery Peptides). The assay is conducted in 50 mM HEPES, […], 1 mM CHAPS, 5% Glycerol, 1 mM DTT, in dI water with a final pH of 7.4 and final volume of 20 uL. Final protein domain concentrations are: 50 nM cIAP1-BIR3 (Part #APT-11-370 Reaction Biology), 100 nM XIAP-BIR3 (Part #APT-11-351 Reaction Biology), 200 nM XIAP-BIR2 (Part #APT-11-470 Reaction Biology), 325 nM cIAP2-BIR2 (Part #APT-11-489 Reaction Biology), 50 nM cIAP2-BIR3 (Part #APT-11-372 Reaction Biology), 325 nM cIAP1-BIR2 (Part #APT-11-487 Reaction Biology). Compounds were plated using a HP Tecan D300 printer in a final total volume of 202 nl and DMSO concentration normalized across the 15-point, 3-fold dilution series. Peptide and probe were prepared at 2× relative to the concentrations above in binding buffer, 10 uL added to the prepared compound plates, and incubated for 60 minutes. LANCE Eu-W1024 (part #AD0401 Perkin Elmer #, vendor) was prepared at 2× concentration in binding buffer for final concentration of 2 nM, 10 uL added to each well, and plates incubated for 30 minutes. Plates were read on an ENVISION multifunction plate reader with […] laser excitation to obtain the 615 nm/665 nm emission ratio as indicative of probe:protein proximity. Data was analyzed using GraphPad PRISM and curves fit using log(inhibitor) vs. response—Variable slope (four […] method to obtain IC50 and pIC50 values.

The next assay concerns the target cIAP1-BIR2 (Homo sapiens (Human), UniProt Q13490). Description: BIR binding assay (FRET competition), cIAP1 BIR2. The procedure: as §1
The target in the next assay is cIAP1-BIR3 (Homo sapiens (Human), UniProt Q13490). Description: BIR binding assay (FRET competition), cIAP1 BIR3. The settings on record: for cIAP1 BIR3 vs BIR2 separation window: fold separation (FS) for cIAP1. Put shortly:
(§2)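 His-tagged domains (50 nM cIAP1-BIR3, 325 nM cIAP2-BIR2, 325 nM cIAP1-BIR2, 100 nM XIAP-BIR3) compete with compounds for a 200 nM AlexaFluor647-labelled SMAC/DIABLO peptide in HEPES buffer, pH 7.4, for 60 min. Then 2 nM Eu-W1024 is added for 30 min. The 615/665 nm ratio is fit by four-parameter fit to give IC50.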

For a further assay, the target named is cIAP2-BIR3 (Homo sapiens (Human), UniProt Q13489). The assay can be described thus: BIR binding assay (FRET competition), cIAP2 BIR3. The following applies: for cIAP2 BIR3 vs BIR2 separation window: fold separation (FS) for cIAP2.
The target of the next assay is XIAP-BIR3 (Homo sapiens (Human), UniProt P98170). Description: BIR binding assay (FRET competition), XIAP BIR3. Put shortly:
as §2

Assay [1] has as its system Jurkat HIV-luciferase clones. Description: Jurkat latency reversal assay. Format: cell-based. The following applies: Homo sapiens, 48 h; Jurkat latency reversal assay potency; read-out: Jurkat pEC50 (converted). Put shortly: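 EC50 and maximal activation versus vehicle were derived by four-parameter logistic regression of luciferase luminescence. The luminescence was induced in pooled Jurkat HIV-luciferase clones C16, 115 and N6 (5,000 cells/well) after 48 h at 37° C with duplicate 14-point, 3-fold dilutions starting at 10 μM (0.5% DMSO).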

Chain of cIAP1-BIR2 (Q13490 173-257): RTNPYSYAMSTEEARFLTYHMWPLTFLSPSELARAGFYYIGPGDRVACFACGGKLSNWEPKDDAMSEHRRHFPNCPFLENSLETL
Chain of XIAP-BIR3 (P98170 241-356): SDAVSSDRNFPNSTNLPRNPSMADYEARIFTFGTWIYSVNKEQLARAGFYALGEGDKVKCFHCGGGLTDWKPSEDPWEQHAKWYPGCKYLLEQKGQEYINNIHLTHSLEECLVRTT
Chain of cIAP2-BIR2 (Q13489 158-242): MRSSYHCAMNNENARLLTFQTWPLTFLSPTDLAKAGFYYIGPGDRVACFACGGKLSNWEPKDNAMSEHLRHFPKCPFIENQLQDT
Chain of cIAP1-BIR3 (Q13490 253-363): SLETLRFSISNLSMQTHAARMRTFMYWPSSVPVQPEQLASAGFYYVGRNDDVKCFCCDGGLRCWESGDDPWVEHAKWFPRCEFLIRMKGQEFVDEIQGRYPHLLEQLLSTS
Chain of cIAP2-BIR3 (Q13489 238-349): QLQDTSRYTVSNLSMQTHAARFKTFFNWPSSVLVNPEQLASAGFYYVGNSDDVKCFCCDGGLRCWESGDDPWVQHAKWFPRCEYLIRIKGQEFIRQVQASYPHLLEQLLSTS

The IC50 is the point on the concentration scale where inhibition reaches its midpoint. Read a low IC50 as inhibition by little substance. `C[C@@H]1CN(CC(=O)N2CC(C)(C)c3[nH]c(=O)c(Cc4ccc(Cl)cc4O)cc32)[C@@H](CN2CCO[C@H](C(=O)NCc3ccc(CNC(=O)[C@@H]4CN(C[C@H]5CN[C@H](C)CN5CC(=O)N5CC(C)(C)c6[nH]c(=O)c(Cc7ccc(Cl)cc7O)cc65)CCO4)cc3)C2)CN1` [Compound 164, (2S,2′S)-N,N′-(1,4-phenylenebis(methylene)) bis(4-(((2R,5R)-1-(2-(6-(4-chloro-2-hydroxybenzyl)-3,3-dimethyl-5-oxo-2,3,4,5-tetrahydro-1H-pyrrolo[3,2-b]pyridin-1-yl)-2-oxoethyl)-5-methylpiperazin-2-yl)methyl)morpholine-2-carboxamide)]: the half-maximal inhibitory concentration (IC50) on cIAP2-BIR2 was in the range of 22.4 to 1000 nM; on cIAP1-BIR2 it was 22.4 to 1000 nM; at cIAP1-BIR3 it was 1.38 to 7.94 nM; on cIAP2-BIR3 it was 1.38 to 7.94 nM; on XIAP-BIR3 it was 7.94 to 15.8 nM. At cIAP1-BIR3, the “cIAP1 BIR3 vs BIR2 separation window” value was “++ (1,000>FS>100)”. In addition, the “cIAP2 BIR3 vs BIR2 separation window” value on cIAP2-BIR3 was “++ (1,000>FS>100)”. Moreover, the EC50 in assay [1] is 63.1 to 316 nM.
Regarding `CC(C)c1ccccc1Cc1cc2c([nH]c1=O)C(C)(C)CN2C(=O)CN1C[C@@H](C)NC[C@@H]1CN1CCO[C@H](C(=O)NCc2ccc(CNC(=O)[C@@H]3CN(C[C@H]4CN[C@H](C)CN4CC(=O)N4CC(C)(C)c5[nH]c(=O)c(Cc6ccccc6C(C)C)cc54)CCO3)cc2)C1` [Compound 173, (2S,2′S)-N,N′-(1,4-phenylenebis(methylene)) bis(4-(((2R,5R)-1-(2-(6-(2-isopropylbenzyl)-3,3-dimethyl-5-oxo-2,3,4,5-tetrahydro-1H-pyrrolo[3,2-b]pyridin-1-yl)-2-oxoethyl)-5-methylpiperazin-2-yl)methyl)morpholine-2-carboxamide)], the concentration for half-maximal inhibition (IC50) at cIAP2-BIR2 lay within 3160 to 10000 nM; at cIAP1-BIR2, 10000 to 51300 nM; at cIAP1-BIR3, 31.6 to 501 nM; at cIAP2-BIR3 it was 15.8 to 31.6 nM; on XIAP-BIR3 it was 31.6 to 501 nM. The “cIAP1 BIR3 vs BIR2 separation window” value on cIAP1-BIR3 was “+++ (10,000>FS>1,000)”. In addition, the “cIAP2 BIR3 vs BIR2 separation window” value on cIAP2-BIR3 is “+++ (10,000>FS>1,000)”. For the same molecule, the EC50 in assay [1] is 63.1 to 316 nM.
For `C[C@@H]1CN(CC(=O)N2CC(C)(C)c3[nH]c(=O)c(Cc4c(F)c(F)c(F)c(F)c4F)cc32)[C@@H](CN2CCO[C@H](C(=O)NCc3ccc(CNC(=O)[C@@H]4CN(C[C@H]5CN[C@H](C)CN5CC(=O)N5CC(C)(C)c6[nH]c(=O)c(Cc7c(F)c(F)c(F)c(F)c7F)cc65)CCO4)cc3)C2)CN1` [Compound 176, (2S,2′S)-N,N′-(1,4-phenylenebis(methylene)) bis(4-(((2R,5R)-1-(2-(3,3-dimethyl-5-oxo-6-((perfluorophenyl)methyl)-2,3,4,5-tetrahydro-1H-pyrrolo[3,2-b]pyridin-1-yl)-2-oxoethyl)-5-methylpiperazin-2-yl)methyl)morpholine-2-carboxamide)], the IC50 at cIAP2-BIR2 lay in the range of 3160 to 10000 nM; at cIAP1-BIR2 it was 3160 to 10000 nM; on cIAP1-BIR3 it was 31.6 to 501 nM; at cIAP2-BIR3, 15.8 to 31.6 nM; at XIAP-BIR3 it was 31.6 to 501 nM. On cIAP1-BIR3, the “cIAP1 BIR3 vs BIR2 separation window” value was “++ (1,000>FS>100)”. The “cIAP2 BIR3 vs BIR2 separation window” value at cIAP2-BIR3 is reported as “+++ (10,000>FS>1,000)”. Further, the EC50 in assay [1] is 0.49 to 12.6 nM.
Turning to `C[C@@H]1CN(CC(=O)N2CC(C)(C)c3[nH]c(=O)c(Cc4ccc(F)cc4)cc32)[C@@H](CN2CCO[C@H](COc3ccc(C(=O)C(=O)c4ccc(OC[C@@H]5CN(C[C@H]6CN[C@H](C)CN6CC(=O)N6CC(C)(C)c7[nH]c(=O)c(Cc8ccc(F)cc8)cc76)CCO5)cc4)cc3)C2)CN1` [Example 59, 1,2-bis(4-(((S)-4-(((2R,5R)-1-(2-(6-(4-fluorobenzyl)-3,3-dimethyl-5-oxo-2,3,4,5-tetrahydro-1H-pyrrolo[3,2-b]pyridin-1-yl)-2-oxoethyl)-5-methylpiperazin-2-1)methyl)morpholin-2-yl)methoxy)phenyl)ethane-1,2-dione], the 50% inhibitory concentration (IC50) was 3160 to 10000 nM at cIAP2-BIR2; 3160 to 10000 nM on cIAP1-BIR2; 15.8 to 31.6 nM at cIAP1-BIR3; 7.94 to 15.8 nM at cIAP2-BIR3; 15.8 to 31.6 nM on XIAP-BIR3. For the same molecule, the “cIAP1 BIR3 vs BIR2 separation window” value on cIAP1-BIR3 is given as “+++ (10,000>FS>1,000)”. For the same molecule, on cIAP2-BIR3, the “cIAP2 BIR3 vs BIR2 separation window” value is “+++ (10,000>FS>1,000)”. The EC50 in assay [1] was 0.49 to 12.6 nM.
For the molecule `C[C@@H]1CN(CC(=O)N2CC(C)(C)c3[nH]c(=O)c(Cc4ccc(F)cc4)cc32)[C@@H](CN2CCO[C@H](C(=O)NCCCCCCCCCCNC(=O)[C@@H]3CN(C[C@H]4CN[C@H](C)CN4CC(=O)N4CC(C)(C)c5[nH]c(=O)c(Cc6ccc(F)cc6)cc54)CCO3)C2)CN1` [Example 120, (2S,2'S)-N,N′-(decane-1,10-diyl)bis(4-(((2R,5R)-1-(2-(6-(4-fluorobenzyl)-3,3-dimethyl-5-oxo-2,3,4,5-tetrahydro-1H-pyrrolo[3,2-b]pyridin-1-yl)-2-oxoethyl)-5-methylpiperazin-2-yl)methyl)morpholine-2-carboxamide)], the IC50 on cIAP2-BIR2 lay in the range of 1000 to 3160 nM; on cIAP1-BIR2, 1000 to 3160 nM; on cIAP1-BIR3, 7.94 to 15.8 nM; on cIAP2-BIR3, 7.94 to 15.8 nM; at XIAP-BIR3 it was 15.8 to 31.6 nM. On cIAP1-BIR3, the “cIAP1 BIR3 vs BIR2 separation window” value is listed as “+++ (10,000>FS>1,000)”. At cIAP2-BIR3, the “cIAP2 BIR3 vs BIR2 separation window” value was “+++ (10,000>FS>1,000)”. In assay [1], the EC50 is 63.1 to 316 nM.
Regarding `C[C@@H]1CN(CC(=O)N2CC(C)(C)c3[nH]c(=O)c(Cc4ccc(F)cc4)cc32)[C@@H](CN2CCO[C@H](COCCOCCOC[C@@H]3CN(C[C@H]4CN[C@H](C)CN4CC(=O)N4CC(C)(C)c5[nH]c(=O)c(Cc6ccc(F)cc6)cc54)CCO3)C2)CN1` [Example 83, 1,1′-(2,2′-((3R,3′R,6R,6′R)-(((2S,2'S)-(((oxybis(ethane-2,1-diyl))bis(oxy))bis(methylene))bis(morpholine-2,4-diyl))bis(methylene))bis(3-methylpiperazine-6,1-diyl))bis(acetyl))bis(6-(4-fluorobenzyl)-3,3-dimethyl-1,2,3,4-tetrahydro-5H-pyrrolo[3,2-b]pyridin-5-one)], the IC50 on cIAP2-BIR2 was in the range of 3160 to 10000 nM; at cIAP1-BIR2, 3160 to 10000 nM; at cIAP1-BIR3, 15.8 to 31.6 nM; on cIAP2-BIR3, 15.8 to 31.6 nM; on XIAP-BIR3, 15.8 to 31.6 nM. For the same molecule, the “cIAP1 BIR3 vs BIR2 separation window” value at cIAP1-BIR3 is recorded as “+++ (10,000>FS>1,000)”. The “cIAP2 BIR3 vs BIR2 separation window” value on cIAP2-BIR3 is “+++ (10,000>FS>1,000)”. For the same molecule, in assay [1], the EC50 was 12.6 to 63.1 nM.
For the molecule `COc1cc(F)ccc1Cc1cnc2c(c1)N(C(=O)CN1C[C@@H](C)NC[C@@H]1CN1CCO[C@H](COc3cccc(OC[C@@H]4CN(C[C@H]5CN[C@H](C)CN5CC(=O)N5CC(C)(C)c6ncc(Cc7ccc(F)cc7OC)cc65)CCO4)c3)C1)CC2(C)C` [Compound 151], the IC50 at cIAP2-BIR2 was 3160 to 10000 nM; at cIAP1-BIR2, 3160 to 10000 nM; on cIAP1-BIR3, 15.8 to 31.6 nM; on cIAP2-BIR3 it was 7.94 to 15.8 nM; at XIAP-BIR3, 31.6 to 501 nM. The “cIAP1 BIR3 vs BIR2 separation window” value on cIAP1-BIR3 was “+++ (10,000>FS>1,000)”. Further, the “cIAP2 BIR3 vs BIR2 separation window” value on cIAP2-BIR3 is reported as “+++ (10,000>FS>1,000)”. The EC50 in assay [1] is 63.1 to 316 nM.
On to `C[C@@H]1CN(CC(=O)N2CC(C)(C)c3[nH]c(=O)c(Cc4c(F)cc(F)cc4F)cc32)[C@@H](CN2CCO[C@H](COc3cccc(OC[C@@H]4CN(C[C@H]5CN[C@H](C)CN5CC(=O)N5CC(C)(C)c6[nH]c(=O)c(Cc7c(F)cc(F)cc7F)cc65)CCO4)c3)C2)CN1` [Compound 188], for which the IC50 at cIAP2-BIR2 was in the range of 1000 to 3160 nM; at cIAP1-BIR2, 1000 to 3160 nM; on cIAP1-BIR3, 15.8 to 31.6 nM; on cIAP2-BIR3, 15.8 to 31.6 nM; at XIAP-BIR3 it was 15.8 to 31.6 nM. Also, the “cIAP1 BIR3 vs BIR2 separation window” value at cIAP1-BIR3 was “+++ (10,000>FS>1,000)”. In addition, the “cIAP2 BIR3 vs BIR2 separation window” value at cIAP2-BIR3 was “++ (1,000>FS>100)”. Also, in assay [1], the EC50 is 0.49 to 12.6 nM.

The record behind these values is patent US20250326771A1, “PIPERAZINE DERIVATIVES USEFUL IN HIV THERAPY” (VIIV HEALTHCARE COMPANY, priority 2022, published 2025).
